Experiment [1] relates to EP4 receptor. Description: EP4 receptor expression in LPS stimulated human PBMC's via RT-PCR. The experiment is classed as cell-based. The conditions noted are these: PBMC's after injury, co-incubation with NS-398. How it is done: Serial dilutions were made to co-culture cells with a final concentration of […] NS-398 in a 0.1% DMSO. Control and trauma groups were co-cultured with 0.1% DMSO vehicle for comparisons with NS-398 treated groups.

In experiment [2] the test system is IκB-α. Description: Western blot of cytosolic IκB-α in splenic macrophages. It counts as in vivo, BALB/c mice. The settings on record: NS-398 treatment after trauma, over 7 days. How it is done: Cytoplasmic fractions were collected after splenic macrophages were stimulated (as described above) and then boiled in equal volumes of loading buffer (125 mM Tris-HCl, pH 6.8, 4% sodium dodecyl sulfate, 20% glycerol and 10% 2-mercaptoethanol) for 3 minutes and were then separated by electrophoresis on a tris-glycine gradient gel. The proteins were then transferred to nitrocellulose membranes (Xcell II Blot Module; Novex). The membranes were blocked with 10% non-fat dried milk in Tris-buffered saline (TBS), pH 7.6, containing 0.05% tween-20 (TTBS) for 1 hour and then incubated with a polyclonal rabbit anti-mouse antibody to IκB-α (Santa Cruz Laboratories) for 45 minutes. After washing twice in TTMS, the blots were incubated with a peroxidase-conjugated goat anti-rabbit IgG secondary antibody for 15 minutes. The blots were washed in TTBS for 5 minutes three times, then in TBS for 5 minutes, incubated in enhanced chemiluminescence reagents (ECL, Amersham Life Sciences, Buckingham, England) and exposed on radiographic film (Kodak, Rochester, N.Y.).
(In general: A western blot detects proteins with antibodies after separation by electrophoresis.)

Experiment [3] concerns LPS stimulated splenic macrophages. Description: Mediator production (PGE2, LTB4, TNF-α, NO, IL-6) by LPS stimulated splenic macrophages 7 days after trauma, NS-398 twice a day over 7 days. The experiment is classed as in vivo, BALB/c mice. The settings on record: for NO: mean ± SEM. The method, then:
Animals, Experimental Protocol, NS-398 preparation were as described in Example I. Macrophages were prepared as described initially under “Macrophage Preparation ” in Example I. After lysis of erythrocytes with ammonium chloride solution and centrifugation as described in Example I, macrophages were further prepared by resuspending the pellet in RPMI-1640 (Gibco BRL, Life Technologies Inc) containing 2 mmol/L L-glutamine, 100 U/mL penicillin, 100 μg/mL streptomycin, 0.25 μg/mL amphotericin B, and 10% heat-inactivated fetal calf serum (Gibco BRL, Life Technologies Inc), counted via hemocytometer and diluted to a final concentration of 5×10^6 cells/mL, and plated in 96 well plates in a volume of 0.2 mL per well. After allowing macrophages to adhere for 2 hours, the remaining cells were suctioned off and the macrophages were cultured in the +/−1 ng LPS 055:B5 (Sigma, St. Louis, Mo.) per mL at 37° C. in 5% carbon dioxide incubators. Supernatants were harvested at 24 hours and stored at −70° C. until analysis for batch enzyme-linked immunosorbent assay processing to determine prostaglandin and cytokine production.
NO was measured indirectly by NO2^− concentration using the Greiss reagent system (Promega, Madison, Wis). Protein was quantified using the BCA protein reagent (Pierce, Rockford, Ill.) and all measurements were normalized to protein content per well.
BALB/C mice (n=8/group) were given 10mg/kg NS398 intraperitoneally BID for 7 days, starting immediately after sham injury or trauma (femur fracture+40% hemorrhage). Four groups, sham+placebo (C); sham+NS398 (CN); trauma+placebo (T); or trauma+NS398 (TN) were studied. On day 7 after trauma, mice were sacrificed and splenic macrophages evaluated for PGE2, TNF-α and NO production (via Student's t-test). In a separate study, mice (n=10-11/group) were traumatized and given NS398 for 7 days. On day 7, cecal ligation and puncture was performed, and mice evaluated for survival over 3 weeks (via Log-rank test).

For experiment [4], the system named is COX-2 mRNA. Description: COX-2 mRNA expression in LPS stimulated splenic macrophages by RT-PCR (3 doses within 24 h). The experiment is classed as in vivo, BALB/c mice. The conditions noted are these: traumatized mice + NS-398, 3 doses within 24 h, day 7. How it is done: Isolated splenic macrophages were treated with lipopolysaccharide (LPS) (10 ng/ml) for six hours.
To evaluate the relative expression of COX-2 mRNA, splenic macrophages were treated as previously described and harvested by RT-PCR.

Experiment [5] concerns LPS stimulated splenic macrophages. Put plainly: Mediator production (PGE2, IL-6, TNF-α, NO) by stimulated splenic macrophages 7 days after injury, 3 in vivo doses of NS-398 within 24 h. Set-up: species or system BALB/c mice. How it is done:
Vehicle mice were injected with a 4% DMSO solution.
Spleens were collected aseptically and placed in separate petri dishes containing cold (4° C.) Hanks Balanced Salt Solution without calcium and magnesium (Gibco BRL, Life Technologies Inc, Grand Island, N.Y.). Splenocytes were isolated by gentle mechanical disruption of the spleen with filtration through a nylon mesh (Spectrum, Laguna Hills, Calif.). The suspension was centrifuged for 7 minutes, at 500 g and 4° C. After resuspension, erythrocytes were lysed with an ammonium chloride solution for 4 minutes and the lysate was centrifuged as previously described. The remaining pellet was resuspended in complete RPMI-1640 (Gibco BRL, Life Technologies Inc), containing 1% antibiotic/antimycotic solution and 10% heat-inactivated fetal bovine serum (Gibco BRL, Life Technologies Inc), counted and diluted to a final cell concentration of 5×10^6 cells/ml and plated. After allowing macrophages to adhere for 2 hours, the remaining cells were suctioned off and macrophages were incubated with 10 ng/ml LPS 055:B5 (Sigma, St. Louis, Mo.) for PGE2, IL-6 and TNFα determination, or (10 ng/ml LPS+100 U/ml recombinant mouse IFN-γ (Pharmingen, San Diego, Calif.) for NO2^− determination. Cells were incubated at 37° C. in a 5% CO2 atmosphere, and supernatants harvested at 24 hours and frozen at −70° C. for determination of prostaglandin, cytokine and NO production.
NO2^− was measured indirectly by determination of NO2^− concentration using the Greiss reagent system (Promega, Madison, Wis.). The BCA protein assay (Pierce, Rockford, Ill.) was used to quantify protein and all measurements were normalized to protein content per well.
Balb/c mice (n=8/group) were given 3 intraperitoneal injections of 10 mg/kg NS398; immediately following injury, at 12 and 24 hours after sham injury or trauma (femur fracture and 40% blood volume hemorrhage). Sham+placebo (C); sham+NS398 (CN); trauma+placebo (T); or trauma+NS398 (TN) groups were studied. On day 7 after injury, mice were sacrificed and splenic macrophages evaluated for cytokine production and expression of COX-2 mRNA. In a separate study, mice (n=10-12/group) were treated in an identical fashion. After 7 days, cecal ligation and puncture was performed and animals followed for survival.

The mark [6] stands for this setting: C + NS398, 10 mg/kg i.p. BID for 7 days.
Where [7] appears, read: T + NS398, 10 mg/kg i.p. BID for 7 days.
Where [8] appears, read: injured mice + NS-398 over 7 days vs untreated injured, P<0.05.
Setting [9] is: T + NS, 3 i.p. injections of 10 mg/kg, splenic macrophages day 7.

Entries after “also recorded” stand apart in the source; their conditions may differ.

Take `CS(=O)(=O)Nc1ccc([N+](=O)[O-])cc1OC1CCCCC1` [NS-398, N-(2-cyclohexyloxy-4-nitrophenyl)methanesulfonamide]: the EP4 receptor expression entry in experiment [1] is reported as “reversed; also recorded: restored”. Also, the “cytosolic IκB” value in experiment [2] is “an increase in cytosolic IκB”. In experiment [3] (setting [6]), the TNF-α came to 2.6 ± 0.3 pg/μg protein and the NO is 54.8 ± 2.1 nmol/μg protein. In addition, in experiment [3] (NS-398 given after injury, over 7 days), the “LTB4 levels (in words)” value is given as “did not restore LTB4 levels to those seen in control”. For the same molecule, in experiment [3] (setting [7]), the TNF-α was found to be 2.6 ± 0.3 pg/μg protein and the NO was 48.0 ± 3.3 nmol/μg protein. Also, the PGE2 production in experiment [3] (injured mice + NS398 (TN), 10 mg/kg i.p. BID for 7 days) stood at 3.1±0.4 pg/μg protein. For the same molecule, in experiment [3] (setting [8]), the “IL-6 production (in words)” value was “significantly attenuated production”, the “NO production (in words)” value was “significantly attenuated production” and the “TNF-α production (in words)” value is “significantly attenuated production”. Further, in experiment [3] (traumatized mice + NS-398 over 7 days, P<0.05), the “PGE2 production by splenocytes/macrophages (in words)” value was “produce significantly less PGE2”. The “COX-2 mRNA levels relative to GAPDH” value in experiment [4] is “attenuated the levels of COX-2 mRNA to below control levels”. In experiment [4] (listed as NS398), the “COX-2 mRNA levels relative to GAPDH” value is recorded as “significant decreases”. For the same molecule, in experiment [5] (setting [9]), the IL-6 is reported as 5.4 ± 0.9 pg/μg protein, the NO is 8 ± 4 nmol/μgprot and the TNF-α is reported as 2.0 ± 0.5. In experiment [5] (T + NS, 3 i.p. injections of 10 mg/kg, splenic macrophages day 7, n=8), the PGE2 was 71 ± 14. Besides, in experiment [5] (control mice treated with NS-398 (CN), 7 days), the PGE2 production from LPS stimulated splenic macrophages came out at 87 ± 10 pg/µg protein. In addition, in experiment [5] (injured mice + NS-398, 7 days), the “IL-6 level, splenic macrophages” value amounted to 5.4 ± 0.3 pg/µg and the “nitrite levels, LPS+IFN-γ stimulated splenic macrophages” value stood at 0.007 ± 0.004 nmol/µg. In addition, the “TNF-α production, splenic macrophages” value in experiment [5] (trauma + NS-398 (TN), 7 days following trauma) stood at 2.0 ± 0.2 pg/µL. In addition, in experiment [5] (trauma+NS-398 mice, 7 days following injury, treatment for 24 hours post-injury, ±SEM), the “PGE2 production from LPS stimulated splenic macrophages” value amounted to 71 ± 5 pg/µg.
